Test results as given in patent US11007282B2, “Compositions for circulatory system visualization” (DICRONIS SAGL, priority 2015, dated 2021).

Tests used:
[1] = In vitro fluorescence quantification of PVP-ICG formulations (Kollidon 17 PF), microplate reader; conditions: λEx/Em 770/818 nm
[2] = in vivo; cited from earlier work

- n-fold increase of ICG fluorescence in presence of PVP compared to water solution ([1]; ICG 0.025 mg/mL, Kollidon 17 PF 0.25 g/mL (1:10'000)): 1.32 n-fold
- n-fold increase of ICG fluorescence in presence of PVP compared to water solution ([1]; ICG 0.06 mg/mL, Kollidon 17 PF 0.25 g/mL (1:4'166)): 1.68 n-fold
- n-fold increase of ICG fluorescence in presence of PVP compared to water solution ([1]; ICG 0.15 mg/mL, Kollidon 17 PF 0.25 g/mL (1:1'666)): 2.2 n-fold
SMILES: CC1(C)C(/C=C/C=C/C=C/C=C2\N(CCCCS(=O)(=O)O)c3ccc4ccccc4c3C2(C)C)=[N+](CCCCS(=O)(=O)[O-])c2ccc3ccccc3c21 [ICG, sodium 4-[2-[(1E,3E,5E,7Z)-7-[1,1-dimethyl-3-(4-sulfonatobutyl)benzo[e]indol-2-ylidene]hepta-1,3,5-trienyl]-1,1-imethylbenzo[e]-indol-3-ium-3-yl]butane-1-sulfonate]
- route of excretion [2]: excreted exclusively in the bile
